One experiment deals with T1, Human LBAT (Homo sapiens, UniProt Q14973).
T1 construct: expressed in transfected cells; kept under Geneticin selection
T1 sequence (Q14973 1-349): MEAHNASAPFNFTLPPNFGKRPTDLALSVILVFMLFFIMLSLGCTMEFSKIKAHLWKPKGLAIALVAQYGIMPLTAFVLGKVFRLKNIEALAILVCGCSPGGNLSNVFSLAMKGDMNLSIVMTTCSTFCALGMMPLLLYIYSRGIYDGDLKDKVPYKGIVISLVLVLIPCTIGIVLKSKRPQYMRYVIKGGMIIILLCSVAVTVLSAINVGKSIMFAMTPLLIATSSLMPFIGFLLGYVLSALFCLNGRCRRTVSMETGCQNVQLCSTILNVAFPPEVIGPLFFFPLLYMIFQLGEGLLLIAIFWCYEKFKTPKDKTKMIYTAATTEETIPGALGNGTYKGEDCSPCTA
The experiment in a line: LBAT (h/m) assay, human LBAT-overexpressing cells, 3H-taurocholic acid uptake. In kind it is cell-based. The settings on record: 0.3 μM 3H-taurocholic acid and 7.5 μM cold taurocholic acid, 20 minutes, read-out: hLBAT IC50. Here is the method: LBAT (h/m) Assay Protocol
20,000 cells (Human or Mouse LBAT-overexpressing cells) were seeded in 96-wells plate (Corning CLS3809) in 100 μL MEM-alpha medium (Gibco 12571-063) supplemented with 10% FBS (Gibco 10438026) containing Geneticin (Gibco 10131-027) (1 mg/mL) and incubated at 37° C. in 5% CO2 for 24 hours. After incubation, media was decanted from the wells and cells were washed two times with 300 μL of basal MEM-alpha medium (FBS-free). After decanting basal MEM-alpha medium each time, plates were tapped against paper towel to ensure maximum removal of residual media.
For human LBAT, incubation mix was prepared by adding test inhibitor dilutions (3-fold serial dilution in DMSO (Sigma D2650), 10 points) in MEM-alpha (without FBS) containing 0.3 μM 3H-taurocholic acid (ARC ART-1368) and 7.5 μM cold taurocholic acid (Sigma T4009) (maintaining 0.2% final DMSO concentration). For mouse LBAT, incubation mix was prepared by adding test inhibitor dilutions (3-fold serial dilution in DMSO, 10 points) in MEM-alpha (without FBS) containing 0.3 μM 3H-taurocholic acid and 25 μM cold taurocholic acid maintaining 0.2% final DMSO concentration).
50 μL of incubation mix containing test inhibitors was then added to the wells (in duplicate) and the plates were incubated for 20 minutes in a CO2 incubator at 37° C. After incubation, the reaction was stopped by keeping the plates on ice water mix for 2-3 minutes and then the incubation mix was aspirated completely from the wells. The wells were washed two times with 250 μL of chilled unlabelled 1 mM taurocholic acid dissolved in HEPES (Gibco 15630080)-buffered (10 mM) HBSS (Gibco 14175079) (pH 7.4). The plates were tapped against a paper towel after every wash to ensure maximum removal of blocking buffer.
100 μL of MicroScint-20 (PerkinElmer 6013621) was added to the wells and kept overnight at room temperature before reading the plates in TopCount NXT™ Microplate Scintillation and Luminescence Counter from PerkinElmer under 3H Test protocol (set at 120 seconds reading time per well, with normal plate orientation).
(§1) Preparation of Test Compound Dilutions
(§2) All test compounds were provided in powder form at room temperature. 10 mM DMSO stocks of the test compounds were prepared, aliquoted and stored at −20° C. From the 10 mM DMSO stock of the compounds, a 3-fold serial dilution in DMSO was prepared to get a total of 10 dilutions of the test compounds. 0.5 μL of this dilution in DMSO was added to 250 μL of FBS-free basal media containing 3H-taurocholic acid and cold taurocholic acid to prepare the incubation mixture.

Another experiment concerns the target T2, Human IBAT (Homo sapiens, UniProt Q12908).
T2 construct: expressed in transfected cells; kept under Puromycin selection
T2 sequence (Q12908 1-348): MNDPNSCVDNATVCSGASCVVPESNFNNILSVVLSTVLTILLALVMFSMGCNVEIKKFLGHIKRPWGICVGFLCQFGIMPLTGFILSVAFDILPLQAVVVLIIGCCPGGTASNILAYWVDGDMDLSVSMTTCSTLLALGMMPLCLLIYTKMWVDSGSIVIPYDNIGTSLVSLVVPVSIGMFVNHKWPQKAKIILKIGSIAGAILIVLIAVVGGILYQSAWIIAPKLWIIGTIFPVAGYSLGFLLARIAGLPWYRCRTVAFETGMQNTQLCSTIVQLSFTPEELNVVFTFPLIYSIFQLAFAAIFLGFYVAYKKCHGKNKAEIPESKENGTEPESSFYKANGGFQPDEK
The experiment in a line: IBAT (h/m) assay, human IBAT-overexpressing cells, 3H-taurocholic acid uptake. The settings on record: 0.25 μM 3H-taurocholic acid and 5 μM cold taurocholic acid, 20 minutes, highest test concentration 10 μM, read-out: hIBAT IC50. The experiment is classed as cell-based. The procedure:
IBAT (h/m) Assay Protocol
10,000 cells (Human or Mouse IBAT-overexpressing cells) were seeded in 96-wells plate (Corning CLS3809) in 200 μL MEM-alpha medium (Gibco 12571-063) supplemented with 10% FBS (Gibco 10438026) containing Puromycin (Gibco A1113803) (10 μg/mL) and incubated at 37° C. in 5% CO2 for 48 hours. After incubation, media was decanted from the wells and cells were washed two times with 300 μL of basal MEM-alpha medium (FBS-free). After decanting basal MEM-alpha medium each time, plates were tapped against paper towel to ensure maximum removal of residual media. Test inhibitor dilutions (highest test concentration being 10 μM, 3-fold serial dilution, 10 points) prepared in DMSO (Sigma D2650) were added in incubation mix (maintaining 0.2% final DMSO concentration) containing 0.25 μM 3H-taurocholic acid (ARC ART-1368) and 5 μM of cold taurocholic acid (Sigma T4009). 50 μL of incubation mix containing test inhibitors was then added to the wells (in duplicate) and the plates were incubated for 20 minutes in a CO2 incubator at 37° C. After incubation, the reaction was stopped by keeping the plates on ice water mix for 2-3 minutes and then the incubation mix was aspirated completely from the wells. The wells were washed two times with 250 μL of chilled unlabelled 1 mM taurocholic acid dissolved in HEPES (Gibco 15630080)-buffered (10 mM) HBSS (Gibco 14175079) (pH 7.4). The plates were tapped against a paper towel after every wash to ensure maximum removal of blocking buffer.
100 μL of MicroScint-20 (PerkinElmer 6013621) was added to the wells and kept overnight at room temperature before reading the plates in TopCount NXT™ Microplate Scintillation and Luminescence Counter from PerkinElmer under 3H Test protocol (set at 120 seconds reading time per well).
as §1, §2

In the case of `CCCCC1CN(c2ccccc2)c2cc(SC)c(OCC(C)(C)C(=O)O)cc2S(=O)(=O)N1C` (single isomer, unassigned) [2, enantiomer 1], the 50% inhibitory concentration (IC50) (as a rule, the midpoint of a concentration-inhibition curve) at Human LBAT was 2.28 µM; on Human IBAT, not below 10 µM.

Turning to `CCCCC1CN(c2ccccc2)c2cc(SC)c(OCC3(C(=O)O)CC3)cc2S(=O)(=O)N1C` (single isomer, unassigned) [4, enantiomer 1], the IC50 at Human LBAT is 0.673 µM; on Human IBAT, not below 10 µM.

Consider `CCCCC1CN(c2ccccc2)c2cc(SCC)c(OCC(C)(C)C(=O)O)cc2S(=O)(=O)N1C` (single isomer, unassigned) [6, enantiomer 1], for which the 50% inhibitory concentration (IC50) at Human LBAT worked out at 0.536 µM.

For `CCCCC1CN(c2ccccc2)c2cc(SCC)c(OCC3(C(=O)O)CC3)cc2S(=O)(=O)N1C` (single isomer, unassigned) [8, enantiomer 2], the half-inhibitory concentration (IC50) on Human LBAT came out at 0.591 µM; on Human IBAT, 4.97 µM.

Take `CCCCC1CN(c2ccc(F)cc2)c2cc(SCC)c(OCC3(C(=O)O)CC3)cc2S(=O)(=O)N1` (single isomer, unassigned) [19, enantiomer 2]: the results for the IC50 on Human LBAT and at Human IBAT were 0.106 µM and more than 3.33 µM, respectively.

In the case of `CCCCC1CN(c2ccccc2)c2cc(SC)c(OCC(F)(F)C(=O)O)cc2S(=O)(=O)N1C` (single isomer, unassigned) [21, enantiomer 1], the results for the IC50 at Human LBAT and on Human IBAT were more than 0.333 µM and more than 10 µM, respectively.

In the case of `CCCCC1CN(c2ccccc2)c2cc(SC)c(OCCC(=O)O)cc2S(=O)(=O)C1` (single isomer, unassigned) [26, enantiomer 1], the half-maximal inhibitory concentration (IC50) on Human LBAT was determined as 0.059 µM.

In the case of `CCCCC1CN(c2ccccc2)c2cc(SC)c(OCC(OC)C(=O)O)cc2S(=O)(=O)N1C` (single isomer, unassigned) [31, stereoisomer 1], the half-maximal inhibitory concentration (IC50) at Human LBAT was determined as 5.68 µM.

Consider `CCCCC1CN(c2ccccc2)c2cc(SC)c(OCC(OC)C(=O)O)cc2S(=O)(=O)N1C` (single isomer, unassigned) [31, stereoisomer 2], for which the half-maximal inhibitory concentration (IC50) worked out at 0.022 µM on Human LBAT and 2.09 µM at Human IBAT.

Turning to `CCCCC1CN(c2ccccc2)c2cc(SC)c(OCC(OC)C(=O)O)cc2S(=O)(=O)N1C` (single isomer, unassigned) [32, diastereomer 2], the half-inhibitory concentration (IC50) on Human LBAT stood at 0.032 µM; on Human IBAT, 4.78 µM.

With `CCCCC1CN(c2ccccc2)c2cc(SC)c(OCC(C)(C)C(=O)O)cc2S(=O)(=O)N1C` (stereo not drawn) [Example 1, 3-((3-Butyl-2-methyl-7-(methylthio)-1,1-dioxido-5-phenyl-2,3,4,5-tetrahydro-1,2,5-benzothiadiazepin-8-yl)oxy)-2,2-dimethylpropanoic acid], the IC50 at Human LBAT worked out at 0.0098 µM.

Take `CCCCC1CN(c2ccc(F)cc2)c2cc(SC)c(OCC(C)(C)C(=O)O)cc2S(=O)(=O)C1` (stereo not drawn) [Example 9, 3-((3-butyl-5-(4-fluorophenyl)-7-(methylthio)-1,1-dioxido-2,3,4,5-tetrahydro-1,5-benzothiazepin-8-yl)oxy)-2,2-dimethylpropanoic acid]: the concentration for half-maximal inhibition (IC50) on Human LBAT is 0.0053 µM; on Human IBAT, 2.7 µM.

With `CCCCC1CN(c2ccc(F)cc2)c2cc(SC)c(OCC3(C(=O)O)CC3)cc2S(=O)(=O)C1` (stereo not drawn) [Example 10, 1-(((3-butyl-5-(4-fluorophenyl)-7-(methylthio)-1,1-dioxido-2,3,4,5-tetrahydro-1,5-benzothiazepin-8-yl)oxy)methyl)cyclopropane-1-carboxylic acid], the IC50 on Human LBAT stood at 0.01 µM; on Human IBAT, 0.678 µM.

Turning to `CCCCC1CN(c2ccc(F)cc2)c2cc(SC)c(OCC3(C(=O)O)CC3)cc2S(=O)(=O)N1C` (stereo not drawn) [Example 11, 1-(((3-butyl-5-(4-fluorophenyl)-2-methyl-7-(methylthio)-1,1-dioxido-2,3,4,5-tetrahydro-1,2,5-benzothiadiazepin-8-yl)oxy)methyl)cyclopropane-1-carboxylic acid], the IC50 at Human LBAT came to 0.0045 µM; at Human IBAT, 0.167 µM.

As for `CCCCC1CN(c2ccccc2)c2cc(SCC)c(OCC3(C(=O)O)CC3)cc2S(=O)(=O)N1` (stereo not drawn) [Example 15, 1-(((3-butyl-7-(ethylthio)-1,1-dioxido-5-phenyl-2,3,4,5-tetrahydro-1,2,5-benzothiadiazepin-8-yl)oxy)methyl)cyclopropane-1-carboxylic acid], the concentration for half-maximal inhibition (IC50) was 0.0042 µM on Human LBAT and more than 3.33 µM on Human IBAT.

On to `CCCCC1CN(c2ccc(F)cc2)c2cc(SC)c(OCC3(C(=O)O)CC3)cc2S(=O)(=O)N1` (stereo not drawn) [Example 16, 1-(((3-butyl-5-(4-fluorophenyl)-7-(methylthio)-1,1-dioxido-2,3,4,5-tetrahydro-1,2,5-benzothiadiazepin-8-yl)oxy)methyl)cyclopropane-1-carboxylic acid], for which the figures for the IC50 on Human LBAT and at Human IBAT were 0.0034 µM and 0.464 µM, respectively.

With `CCCCC1CN(c2ccc(F)cc2)c2cc(SCC)c(OCC3(C(=O)O)CC3)cc2S(=O)(=O)N1` (stereo not drawn) [Example 18, 1-(((3-butyl-7-(ethylthio)-5-(4-fluorophenyl)-1,1-dioxido-2,3,4,5-tetrahydro-1,2,5-benzothiadiazepin-8-yl)oxy)methyl)cyclopropane-1-carboxylic acid], the values for the IC50 on Human LBAT and on Human IBAT were 0.0033 µM and 0.46 µM, respectively.

Consider `CCCCC1CN(c2ccccc2)c2cc(SC)c(OCCC(=O)O)cc2S(=O)(=O)C1` (stereo not drawn) [Example 25, 3-((3-butyl-7-(methylthio)-1,1-dioxido-5-phenyl-2,3,4,5-tetrahydro-1,5-benzothiazepin-8-yl)oxy)propanoic acid], for which the IC50 at Human LBAT came to 0.093 µM.

For the compound `CCCCC1CN(c2ccccc2)c2cc(SC)c(OCC(O)C(=O)O)cc2S(=O)(=O)C1` (stereo not drawn) [Example 28, 3-((3-butyl-7-(methylthio)-1,1-dioxido-5-phenyl-2,3,4,5-tetrahydro-1,5-benzothiazepin-8-yl)oxy)-2-hydroxypropanoic acid], the IC50 at Human LBAT is 0.187 µM.

On to `CCCCC1CN(c2ccccc2)c2cc(SC)c(OCC(OC)C(=O)O)cc2S(=O)(=O)N1C` (stereo not drawn) [Example 30, 3-((3-butyl-2-methyl-7-(methylthio)-1,1-dioxido-5-phenyl-2,3,4,5-tetrahydro-1,2,5-benzothiadiazepin-8-yl)oxy)-2-methoxypropanoic acid], for which the IC50 at Human LBAT turned out to be 0.064 µM.

The record behind these values is US12365658B2, “Benzothia(di)azepine compounds and their use as bile acid modulators” (Albireo AB, priority 2021, dated 2025).
